Measured values as given in US20050107441A1, “Compositions and methods for altering glucose production” (priority 2001, published 2005).

What was measured:
[1] = system: SHP mRNA; experiment: Insulin treatment of ZDF rats, real-time quantitative PCR of liver RNA: SHP mRNA; format: in vivo, Zucker diabetic fatty (ZDF) rats; settings: pooled RNA samples, 6 hours after subcutaneous insulin vs vehicle (0.9% normal saline)
Experimental: (§1) In these experiments, ZDF rats were treated for 6 hours with insulin or vehicle (0.9% normal saline) alone. At the end of this period, the rats were killed and RNA prepared from their livers. […] Conversely, PEPCK levels decreased by approximately 2 fold in response to insulin.
(§2) All procedures performed were in compliance with the Animal Welfare Act, USDA regulations and approved by the GlaxoSmithKline Institutional Animal Care and Use Committee. Animals were housed at 72 F and 50% relative humidity with a 12 hour light and dark cycle, and fed chow diet (Formulab Diet 5008, PMI Feeds Inc., Richmond, Ind.). Insulin-treated animals received a mixture of HUMULIN®N and HUMULIN®R (Lilly, Indianapolis, Ind.) by subcutaneous injection and were sacrificed six hours later. RTQ-PCR was performed using an ABI PRISM 7700 Sequence Detection System instrument and software (PE Applied Biosystems, Inc., Foster City, Calif.) in accordance with procedures described by Way et al. (Endocrinology 2001 142: 1269-77). Primers used include:Rat PEPCK forward: TGAGGAAGTTTGTGGAAG (SEQ ID NO:1) • Rat PEPCK reverse: GCCGTCGCAGATGTGAAT (SEQ ID NO:2) • Rat PEPCK probe: TGCCCAGCTGTGCCAGCC (SEQ ID NO:3) • Rat SHP forward: TGGTACCCAGCTAGCCAAG (SEQ ID NO:4) • Rat SHP reverse: TGTTCTTGAGGGTGGAAGC (SEQ ID NO: 5) • Rat SHP probe: CGCCTGGCCCGAATCCTCC (SEQ ID NO:6) [drawing]

[2] = system: PEPCK; experiment: Insulin treatment of ZDF rats, real-time quantitative PCR of liver RNA: PEPCK mRNA; format: in vivo, Zucker diabetic fatty (ZDF) rats; settings: pooled RNA samples, 6 hours after subcutaneous insulin vs vehicle (0.9% normal saline)
Experimental: as §1, §2

Substance: insulin
- SHP mRNA levels increased in response to insulin [1]: approximately 17 fold
- PEPCK levels decreased in response to insulin [2]: approximately 2 fold
